Test results: patent US20250248979A1, “NOVEL GPX4 INHIBITORS AND USES THEREOF” (THE TRUSTEES OF COLUMBIA UNIVERSITY IN THE CITY OF NEW YORK, priority 2022, published 2025)
Read-outs that look alike come from different tables or passages of the source.

What was measured:
[1] = target: T1, GPX4^U46C (Homo sapiens, UniProt P36969, U73C); experiment: Microscale thermophoresis (MST) binding; details: for EC50: half maximal effective concentration, covalent mechanism
T1 construct: made in house; host or cells: E. coli BL21-Gold (DE3)
T1 sequence (P36969 1-170 isoform P36969-2 U46C): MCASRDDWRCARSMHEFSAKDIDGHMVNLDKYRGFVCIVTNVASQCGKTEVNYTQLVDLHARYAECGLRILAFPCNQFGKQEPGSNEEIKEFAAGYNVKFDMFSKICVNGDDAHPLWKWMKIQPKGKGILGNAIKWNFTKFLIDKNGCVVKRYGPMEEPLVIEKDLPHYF
Method: The bacterial expression vector pET-15b-His-tagged-c-GPX4^U46C was prepared as previously described (Yang et al. 2016). The C-terminal His-tagged GPX4U46C protein was expressed in E. coli and purified according to a protocol modified from Scheerer et al. 2007. First, pET-15b-His-tagged-c-GPX4^U46C was transformed into XL10-Gold (Agilent #200314) E. coli ultracompetent cells for plasmid DNA production and isolated using QIAprep Spin Miniprep Kit (Qiagen). For protein expression, pET-15b-His-tagged-c-GPX4^U46C was then transformed into BL21-Gold (DE3) E. coli competent cells (Agilent #230132) and plated on LB agar with 100 μg/mL ampicillin. A starter culture was inoculated in 7 mL of LB medium with 100 μg/mL ampicillin using a single colony and allowed to grow in a 37° C. shaker (225 rpm) for 16 hours. 3 mL of the starter culture was added to 1 L of LB medium with 100 μg/mL ampicillin, which was then incubated in a 37° C. shaker (225 rpm) to an OD600 of 0.9. At that point, the incubation temperature was reduced to 15° C. and the culture was allowed to equilibrate for 1 hour. Expression of the recombinant enzyme was induced by addition of isopropyl β-D-1-thiogalactopyranoside (IPTG, 1 mM final concentration) overnight for 12-15 hours shaking at 225 rpm and 15° C. The next morning, cells were harvested by centrifugation at 4000 rpm and 4° C. for 20 minutes. The cell pellet was then frozen at −80° C. for at least 1 hour or until lysis. To lyse the cells, the cell pellet was resuspended with 25 mL of chilled lysis buffer (100 mM Tris pH 8.0, 300 mM NaCl, 20 mM imidazole, 3 mM TCEP, and 2.5 mini tablets of complete Protease Inhibitor Cocktail (Roche-Sigma #11836170001)) then lysed using an Emulsiflex C3 high-pressure homogenizer. To remove cell debris, the lysate was subjected to centrifugation at 10000 rpm and 4° C. for 20 minutes. The supernatant was centrifuged once more at the same conditions, then the clarified lysate was applied onto a 5-mL HisTrap HP column (Cytiva #17-5248-01), washed with 90% Buffer A (100 mM Tris pH 8.0, 300 mM NaCl, 5% glycerol, 3 mM TCEP) 10% Buffer B (Buffer A with 500 mM imidazole), then eluted with a continuous gradient (10-100% Buffer B). The protein was concentrated using Amicon Ultra-15 centrifugal filter units with a 10 kDa molecule weight cutoff (EMD Millipore #UFC901024) then further purified by FPLC on a size exclusion HiLoad Superdex 200 column (Cytiva) in crystallization buffer (20 mM Tris pH 8.0, 300 mM NaCl, 3 mM TCEP). The fractions containing 90-95% pure GPX4 protein, as evaluated by SDS-PAGE, were pooled and concentrated using the same Amicon centrifugal filter units as above to 5 mg/mL. Concentration was determined by Nanodrop. Protein was aliquoted into Eppendorf tubes, flash frozen using liquid nitrogen, and stored at −80° C. until use.
MST experiments were conducted using a Monolith NT.115 (Nanotemper Technologies) according to manufacturer instructions. To label the protein, 90 μL of 200 nM GPX4^U46C was combined with 90 μL of 100 nM RED-tris-NTA dye diluted in PBS buffer with 0.05% Tween 20 (PBST buffer). The mixture was incubated for 30 minutes at room temperature, followed by centrifugation for 10 minutes at 4° C. and 15,000×g. To assess binding of the compounds, a 16-point 2-fold dilution series in PBST buffer was prepared and mixed in a 1:1 ratio with the labeled protein solution for a final volume of 20 μL. The reaction mixture was loaded into standard treated capillary tubes and analyzed with the Monolith NT.115 at 40% LED power and 40% MST power with a laser-on time of 5 seconds. The data were analyzed in MO.Affinity Analysis v2.3 software.

[2] = system: HepG2 cells; experiment: Cellular dose response assay, HepG2; type: cell-based, human
Method in brief: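 Cells were seeded at 1500 per well, grown overnight, then treated in triplicate with 12-point 2-fold compound dilutions (0.4% DMSO final) for 48 h at 37 °C, 5% CO2. HT-1080 series were run with and without Fer-1. Viability was read by CellTiter-Glo luminescence.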

[3] = system: HT-1080 cells; experiment: Cellular dose response assay, HT-1080 with and without Fer-1; type: cell-based, human
Method in brief: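 Viability is measured with CellTiter-Glo after cells plated at 1500 per well the previous day receive a 12-point, 2-fold dilution series for 48 h. DMSO is kept at 0.4% in every well, and HT-1080 is tested both with and without Fer-1.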

[4] = system: SK-HEP-1 cells; experiment: Cellular dose response assay, SK-HEP-1; type: cell-based, human; details: Table 4
Description: (§1) HT-1080 (human [Homo sapiens] […] fibrosarcoma), A-673 (human [Homo sapiens] […] Ewing's sarcoma), and SK-HEP-1 (human [Homo sapiens] […] hepatic adenocarcinoma), cells were obtained from ATCC. Huh7 (human [Homo sapiens] […] hepatocellular carcinoma), HLF (human [Homo sapiens] […] hepatocellular carcinoma), HepG2 (human [Homo sapiens] […] hepatocellular carcinoma), cells were obtained from the Cancer Cell Bank at Columbia University Irving Medical Center. HT-1080, A-673, Huh-7, and HLF cells were grown in Dulbecco's Modified Eagle Medium (DMEM) supplemented with 10% heat inactivated fetal bovine serum (HI-FBS), 1% non-essential amino acids, and 1% penicillin streptomycin. HepG2 and SK-HEP-1 cells were grown in Eagle's Minimum Essential Medium (EMEM) supplemented with 10% HI-FBS, and 1% penicillin-streptomycin. All cells were cultured at 37° C. and 5% CO2.
(§2) HT-1080, HepG2, Huh7, HLF, and SK-HEP-1 cells were seeded into opaque white 384-well plates at 1500 cells per well then incubated at 37° C. with 5% CO2 overnight. The next day, compounds of interest were dissolved in DMSO and 12-point 2-fold dilution series were prepared with and without Fer-1. Cells were treated in triplicate (final DMSO concentration of 0.4% in all wells, including DMSO-only control wells) and incubated for a further 48 hours at 37° C. and 5% CO2. Cell viability was evaluated using CellTiter-Glo (Promega G7573) and luminescence was recorded on a Victor 5 plate reader. Data were analyzed in GraphPad Prism 9 and error bars represent standard deviation values for three technical replicates in a representative experiment.

[5] = system: HLF cells; experiment: Cellular dose response assay, HLF; type: cell-based, human; details: Table 4
Description: as §1, §2

[6] = compounds alone, read-out: IC50 (uM) SKHEP1^a
[7] = with fer-1, read-out: IC50 (uM) SKHEP1^b
[8] = compounds alone, read-out: IC50 (uM) HLF^a
[9] = with fer-1, read-out: IC50 (uM) HLF^b
[10] = compounds alone, Table 4, read-out: IC50 (uM) HEPG2^a
[11] = with fer-1, Table 4, read-out: IC50 (uM) HEPG2^b
[12] = compounds alone, Table 4, read-out: IC50 (uM) HT1080^a
[13] = with fer-1, Table 4, read-out: IC50 (uM) HT1080^b

Row | Kd ([1]; MST) | EC50 [1] | IC50 ([2]; Homo sapiens, HepG2, compounds alone, read-out: IC50 (μM) HEPG2^a) | IC50 ([2]; Homo sapiens, HepG2, compounds and fer-1 1.0 μM, read-out: IC50 (μM) HEPG2^b) | IC50 ([3]; Homo sapiens, HT-1080, compounds alone, read-out: IC50 (μM) HT1080^a) | IC50 ([3]; Homo sapiens, HT-1080, compounds and fer-1 1.0 μM, read-out: IC50 (μM) HT1080^b) | IC50 [4, 6] | IC50 [4, 7] | IC50 [5, 8] | IC50 [5, 9] | IC50 [2, 10] | IC50 [2, 11] | IC50 [3, 12] | IC50 [3, 13] | SMILES | ferroptosis induction / potency in HT-1080 cells, result in words ([3]; RSL3 as control)
1 | 263 µM | 263 µM | 88.6 µM | 29.1 µM | 163 µM | 109 µM | – | – | – | – | – | – | – | – | COc1cccc2[nH]c(C(=O)n3ccnc3)cc12 [LOC1886, reference compound] | no fer-1 rescue was observed
2 | – | 2.4 µM | – | – | – | – | 24.1 µM | 52.8 µM | 98.7 µM | 113 µM | 69 µM | 104 µM | 34.8 µM | 37.2 µM | CC(C)(COC(=O)CCl)NC(=O)c1cc2ccccc2[nH]1 [QW-147] | –
3 | – | 39.7 µM | – | – | – | – | 10.1 µM | 121 µM | 16.6 µM | 28.7 µM | > 400 µM | > 400 µM | 37.7 µM | 95.9 µM | CC(C)(COC(=O)CCl)NC(=O)c1cc2cc([N+](=O)[O-])ccc2[nH]1 [QW-148] | –
4 | – | 0.678 µM | – | – | – | – | 24.7 µM | 340 µM | 30 µM | 278 µM | 81.4 µM | 291 µM | 55.5 µM | 167 µM | COc1ccc2cc(C(=O)NC(C)(C)COC(=O)CCl)[nH]c2c1 [QW-152] | –
